Measurements from patent US6245757A, “Use of progestins to treat ischemic event” (priority 1998, dated 2001).

Tests used:
[1] = system: middle cerebral artery occlusion rats; conditions: one hour prior to MCAO; early stages of ischemia; cited from earlier work
[2] = system: cerebral contusion; conditions: one hour after the cerebral trauma; cited from earlier work
[3] = system: central nervous system (CNS); conditions: cited from earlier work
[4] = Body weight loss after MCAO, Example 1; conditions: for Body weight loss: mean ± S.E.M.
Method: (§1) Briefly, the right common carotid artery, external carotid artery (ECA) and internal carotid artery (ICA) were exposed. A length of 4-0 monofilament nylon suture (18.5-19.5 mm), determined by the animal weight, with its tip rounded by heating near a flame, was advanced from the ECA into the lumen of the ICA until it blocked the origin of the MCA. Two hours after MCAO, animals were reanaesthetized with halothane and reperfusion was performed by withdrawal of the suture until the tip cleared the lumen of the ICA.
(§2) Four randomly assigned populations of animals were tested. Group 1 (n=12): water soluble PROG (PROG with balance of 2-hydroxypropyl-β-cyclodextrin) (Sigma Chemical Co., St Louis, Mo.) dissolved in saline (4.0 mg/ml) was injected intraperitoneally (4.0 mg/kg) 30 minutes before MCAO. The remaining injections (all 4.0 mg/kg) were given at 6 and 24 hours after MCAO, respectively. Group 2 (n =12): the experimental protocol was identical to that in Group 1, except that PROG (4-pregnene-3,20-dione) (Sigma Chemical Co., St Louis, Mo.) dissolved in dimethyl sulfoxide (DMSO; Sigma Chemical Co., St Louis, Mo.) (8.0 mg/ml), instead of water soluble PROG, was administered. Group 3 (n=12): the experimental protocol was identical to that in group 2, except that the initial injection was delayed to the onset of reperfusion (2 hours after MCAO). Group 4 (n=12): the experimental protocol was the same as that in Group 2, except that the same volume of DMSO without PROG (0.5 ml/kg) as in Group 2 was administered.
(§3) All animals were weighed before surgery for MCAO and at 24 and 48 hours after MCAO. Neurological abnormalities were also evaluated 24 and 48 hours after MCAO using the scale (0-4) described by Z. Longa et al., Stroke, 20, 84 (1989). Rats were held gently by the tail, suspended one meter above the floor, and observed for forelimb flexion. […] Rats that consistently flexed the left forelimb (contralateral to the injured hemisphere) accompanying flexion of the wrist toward left without any other abnormality were graded 1. Rats that were allowed to move about freely and circled toward the paretic side consistently were graded 2. Rats that fell down to the left losing the ability to walk were graded 3.
(§4) For parametric variables, a one way ANOVA was applied to determine the statistical significance of differences among groups. If a significant difference was detected, then two sample t-tests with Bonferroni correction were performed to evaluate differences between control and PROG treated groups. Paired t-tests were performed on physiological parameters before and after administration of PROG and DMSO within each group. Values presented in this study are mean ±S.E.M. A probability value less than 0.05 was considered significant.

[5] = system: GABA receptor; conditions: physiological levels of PROG, in vivo; cited from earlier work
[6] = circulating PROG; cited from earlier work
[7] = system: global cerebral ischemia; conditions: 7-day pretreatment; cited from earlier work
[8] = in vivo; conditions: rat, ip, 4 mg/kg, plasma level of PROG
[9] = system: GABA receptor; conditions: neurons; cited from earlier work
[10] = Physiological variables (blood pH, pCO2, pO2, blood pressure) before and after injection, rat MCAO; format: in vivo, Male Wistar rats; conditions: for Mean Blood Pressure / pCO2 / pH / pO2: n=12, mean ± S.E.M.
[11] = system: middle cerebral artery occlusion (MCAO) rats; assay: Infarct volume after MCAO (TTC staining), Example 1; format: in vivo, Male Wistar rats; conditions: for % Infarct volume (to the contralateral hemisphere): 48 h post MCAO, n=12, mean ± S.E.M., DMSO group 35.1 ± 4.5; for decrease of percent infarct volume compared with DMSO treated control group: 4.0 mg/kg i.p.
[12] = system: middle cerebral artery occlusion (MCAO) rats; assay: Neurological deficit score after MCAO (Zea Longa scale 0-4), Example 1; conditions: for Neurologic Score: scale 0-4, mean ± S.E.M., DMSO group 1.8 ± 0.1
Method: as §1, §2, §3, §4

[13] = system: stroke patients; conditions: cited from earlier work
[14] = both groups of regular PROG treated animals (pre- and post-MCAO), 4.0 mg/kg i.p.
[15] = 20 min post-injection, 4.0 mg/kg i.p. 30 min before MCAO
[16] = 20 min post-injection, 4.0 mg/kg i.p. 2 h after MCAO
[17] = pre-injection, group 4.0 mg/kg i.p. 30 min before MCAO
[18] = pre-injection, group 4.0 mg/kg i.p. 2 h after MCAO

For `CC(=O)[C@H]1CC[C@H]2[C@@H]3CCC4=CC(=O)CC[C@]4(C)[C@H]3CC[C@]12C` [PROG, 4-pregnene-3,20-dione], which brain edema [1] is on record?
The brain edema was “reduce brain edema in the early stages of ischemia”.

And the “edema resulting from cerebral contusion” value [2]?
The value was “reduced edema”.

And the CNS actions ([3]; PROG and its related metabolites)?
Its CNS actions is “CNS depressants and exert anesthetic, anticonvulsant and anxiolytic actions”.

And the anticonvulsant activity ([3]; in vivo)?
Its anticonvulsant activity is “possesses anticonvulsant activity”.

And the Body weight loss ([4]; 24 h after MCAO, 4.0 mg/kg i.p. first dose 30 min before MCAO, DMSO group 40.4 ± 3.4)?
The Body weight loss was 31.1 ± 2.6 grams.

And the Body weight loss ([4]; 24 h after MCAO, 4.0 mg/kg i.p. first dose 2 h after MCAO, DMSO group 40.4 ± 3.4)?
Its Body weight loss is 33.8 ± 1.9 grams.

What about the Body weight loss ([4]; 48 h after MCAO, 4.0 mg/kg i.p. first dose 30 min before MCAO, DMSO group 19.7 ± 2.9) of the same compound?
Its Body weight loss is 8.8 ± 2.2 grams.

And the Body weight loss ([4]; 48 h after MCAO, 4.0 mg/kg i.p. first dose 2 h after MCAO, DMSO group 19.7 ± 2.9)?
Its Body weight loss is 10.0 ± 3.1 grams.

What about the “body weight loss compared with DMSO group” value [4, 14] of the same compound?
Its value is “reduced body weight loss”.

And the “GABA-mediated inhibition of neuronal activity” value [5]?
Its value is “enhance GABA-mediated inhibition of neuronal activity”.

What about the “passage through the blood-brain barrier” value [6] of the same compound?
Its value is “easily passes through the blood-brain barrier”.

And the “neuroprotective activity following global cerebral ischemia” value [7]?
The value was “exhibited neuroprotective activity following global cerebral ischemia only after a 7-day pretreatment regimen”.

And the “absorption by the intraperitoneal route” value (4.0 mg/kg i.p., DMSO dissolved, n=2)?
The value was “absorbed rapidly”.

What about the “plasma level of PROG” value (rat, in vivo, ip, 4 mg/kg, 4 h) of the same compound?
The value was 70.7 ng/mL.

What about the concentration at 4 h [8] of the same compound?
The concentration at 4 h was 41.9 ng/mL.

And the “GABA-evoked Cl currents” value [9]?
The value was “potentiating GABA-evoked Cl currents”.

What about the “Mean Blood Pressure” value [10, 15] of the same compound?
Its value is 95 ± 2 mm Hg.

And the pCO2 [10, 15]?
The pCO2 was 39 ± 2 mm Hg.

And the pH [10, 15]?
The pH was 7.43 ± 0.02.

What about the pO2 [10, 15] of the same compound?
Its pO2 is 135 ± 5 mm Hg.

And the “Mean Blood Pressure” value [10, 16]?
The value was 103 ± 3 mm Hg.

What about the pCO2 [10, 16] of the same compound?
Its pCO2 is 36 ± 1 mm Hg.

What about the pH [10, 16] of the same compound?
Its pH is 7.44 ± 0.01.

And the pO2 [10, 16]?
Its pO2 is 134 ± 3 mm Hg.

And the “physiological variables before and after injection” value ([10]; before vs 20 min after initial treatment, 4.0 mg/kg i.p.)?
Its value is “no significant difference”.

And the “Mean Blood Pressure” value [10, 17]?
Its value is 94 ± 3 mm Hg.

And the pCO2 [10, 17]?
Its pCO2 is 41 ± 1 mm Hg.

What about the pH [10, 17] of the same compound?
Its pH is 7.44 ± 0.01.

And the pO2 [10, 17]?
Its pO2 is 134 ± 4 mm Hg.

What about the “Mean Blood Pressure” value [10, 18] of the same compound?
Its value is 107 ± 3 mm Hg.

What about the pCO2 [10, 18] of the same compound?
The pCO2 was 36 ± 1 mm Hg.

And the pH [10, 18]?
The pH was 7.46 ± 0.

What about the pO2 [10, 18] of the same compound?
Its pO2 is 133 ± 4 mm Hg.

What about the “% Infarct volume (to the contralateral hemisphere)” value ([11]; 4.0 mg/kg i.p. 30 min before, 6 and 24 h after MCAO) of the same compound?
Its value is 21.5 ± 2.9%.

And the “% Infarct volume (to the contralateral hemisphere)” value ([11]; 4.0 mg/kg i.p. first dose 2 h after MCAO)?
Its value is 23.1 ± 2.3%.

What about the “decrease of percent infarct volume compared with DMSO treated control group” value ([11]; delayed treated (2 h after MCAO), P=0.027) of the same compound?
Its value is 34%.

And the “decrease of percent infarct volume compared with DMSO treated control group” value ([11]; first dose 30 min before MCAO, DMSO dissolved PROG P=0.018, water soluble PROG P=0.290 (not significant))?
Its value is 39%.

And the “effectiveness 2 hours after onset of MCAO versus prior to onset” value ([11]; 2 h after onset vs prior to onset of MCAO)?
The value was “as effective”.

What about the “Neurologic Score” value ([12]; 24 h after MCAO, 4.0 mg/kg i.p. first dose 30 min before MCAO) of the same compound?
Its value is 1.4 ± 0.1 score.

What about the “Neurologic Score” value ([12]; 24 h after MCAO, 4.0 mg/kg i.p. first dose 2 h after MCAO) of the same compound?
The value was 1.4 ± 0.1 score.

What about the “Neurologic Score” value ([12]; 48 h after MCAO, 4.0 mg/kg i.p. first dose 30 min before MCAO) of the same compound?
The value was 1.4 ± 0.1 score.

What about the “Neurologic Score” value ([12]; 48 h after MCAO, 4.0 mg/kg i.p. first dose 2 h after MCAO) of the same compound?
The value was 1.4 ± 0.1 score.

What about the “neurological function compared with DMSO group” value [12, 14] of the same compound?
The value was “improved neurological function”.

Which “outcome, steroid vs non-steroid treated patients” value [13] does the source give for `C[C@@H]1C[C@H]2[C@@H]3CCC4=CC(=O)C=C[C@]4(C)[C@@]3(F)[C@@H](O)C[C@]2(C)[C@@]1(O)C(=O)CO` [dexamethasone] here?
Its value is “no significant difference in outcome”.

With `C[C@H]1C[C@@H]2[C@H]([C@@H](O)C[C@@]3(C)[C@H]2CC[C@]3(O)C(=O)CO)[C@@]2(C)C=CC(=O)C=C12` [methylprednisolone] as the compound, how does the “outcome, steroid vs non-steroid treated patients” value [13] read?
The value was “no significant difference in outcome”.
